B1: biotin-labeled murine PD-1 protein (cat no. 71118, BPS Bioscience) (receptor, UniProt Q02242 25-167, looked up)
chain: LEVPNGPWRSLTFYPAWLTVSEGANATFTCSLSNWSEDLMLNWNRLSPSNQTEKQAAFCNGLSQPVQDARFQIIQLPNRHDFHMNILDTRRNDSGIYLCGAISLHPKAKIEESPGAELVVTERILETSTRYPSPSPKPEGRFQ
notes: also called biotin-labeled PD-1 protein

Tests used:
[1] = test system: fibroblast cell line NIH3T3; assay: Cytotoxicity assay (MTT) in NIH3T3; assay type: cell-based, mouse; conditions: NIH3T3 cells
Procedure: (§1) First, 10^4 cells of each cell line were seeded in a 96-well plate, and cultured for 24 hours. After culturing for 4 hours in a serum-free culture medium, the peptides at each concentration were injected into the wells and further incubated for 4 hours. After discarding a supernatant, 0.5 mg/ml of MTT-containing medium was treated and then left for 2 hours, formazan crystals in the cells were dissolved in each well using dimethyl sulfoxide. Then, cytotoxicity was analyzed by measuring absorbance at 570 nm using a microplate reader.

[2] = test system: melanoma cell line B16F10; assay: Cytotoxicity assay (MTT) in B16F10; assay type: cell-based, mouse; conditions: B16F10 cells
Procedure: as §1

[3] = molecular target: T1, PD-L1 on tumor-derived exosomes (T-EXO) isolated from the plasma of B16F10 melanoma tumor-bearing mice (mouse, UniProt Q9EP73 19-290); assay: ELISA: T-EXO captured on PD-L1 antibody-coated plate, biotin-labeled murine PD-1 (4 ug/ml) detected with streptavidin-HRP, OD 450 nm
T1 construct: whole, on cells; also called PD-L1^EXO; exosomal PD-L1
T1 sequence (Q9EP73 19-290, one chain of several): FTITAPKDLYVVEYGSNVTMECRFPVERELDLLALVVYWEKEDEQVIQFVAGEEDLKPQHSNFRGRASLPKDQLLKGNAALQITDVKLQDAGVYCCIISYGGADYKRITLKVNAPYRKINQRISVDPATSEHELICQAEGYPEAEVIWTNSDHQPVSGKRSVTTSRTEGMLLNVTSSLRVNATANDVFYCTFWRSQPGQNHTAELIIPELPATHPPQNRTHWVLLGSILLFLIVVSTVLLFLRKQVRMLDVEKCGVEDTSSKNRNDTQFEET
Procedure: After treating the plate for 2 hours, the plate was washed with PBS-T (PBS containing 0.05% Tween-20). […] Wells were washed with PBS-T three times, and treated with horseradish peroxidase-conjugated streptavidin (100 μl per well; R&D Systems) diluted in 0.5% BSA-containing PBS for 30 minutes. After washing with PBS-T, the plate was treated with tetramethylbenzidine (R&D Systems) and the reaction was stopped by adding 0.5 N H₂SO₄.

Molecule	cytotoxicity [1]	cytotoxicity ([1]; listed as AH peptide)	cytotoxicity [2]	cytotoxicity ([2]; listed as AH peptide)	binding result [3]
CC[C@@H](C)[C@@H](NC(=O)[C@@H](Cc1c[nH]c2ccccc12)NC(=O)[C@@H](CC(=O)O)NC(=O)[C@@H](Cc1c[nH]c2ccccc12)NC(=O)[C@H](NC(=O)[C@@H](CC(=O)O)NC(=O)[C@@H](CCCNC(=N)N)NC(=O)[C@@H](CC(C)C)NC(=O)[C@@H](Cc1c[nH]c2ccccc12)NC(=O)[C@@H](CO)NC(=O)CNC(=O)[C@H](N)CO)C(C)C)C(=O)N[C@H](CS)C(=O)N[C@@H](C(=O)N[C@@H](C(=O)N[C@H](CC(C)C)C(=O)N[C@@H](C(=O)N[C@H](CC(=O)O)C(=O)N[C@H](Cc1ccccc1)C(=O)N[C@H](CCCCN)C(=O)N[C@@H](C(=O)N[C@H](Cc1c[nH]c2ccccc12)C(=O)N[C@H](CC(C)C)C(=O)N[C@H](CCC(N)=O)C(=O)N[C@H](CO)C(=O)N[C@H](CCCCN)C(=O)N[C@H](CC(C)C)C(N)=O)[C@H](C)O)[C@H](C)O)C(C)C)[C@H](C)O [AH-D peptide]	neither the AH-D peptide nor the NH-D peptide has cytotoxicity	did not exhibit cytotoxicity	neither the AH-D peptide nor the NH-D peptide has cytotoxicity	did not exhibit cytotoxicity	
CC(C)C[C@@H](NC(=O)[C@@H](CCCCN)NC(=O)[C@@H](CO)NC(=O)[C@@H](CCC(N)=O)NC(=O)[C@@H](CC(C)C)NC(=O)[C@@H](Cc1c[nH]c2ccccc12)NC(=O)[C@H](NC(=O)[C@@H](CCCCN)NC(=O)[C@@H](CC(=O)O)NC(=O)[C@@H](CC(=O)O)NC(=O)[C@H](NC(=O)[C@@H](CC(C)C)NC(=O)[C@H](NC(=O)[C@H](NC(=O)[C@@H](CS)NC(=O)[C@@H](CCC(=O)O)NC(=O)[C@@H](Cc1c[nH]c2ccccc12)NC(=O)[C@@H](CC(=O)O)NC(=O)[C@@H](Cc1c[nH]c2ccccc12)NC(=O)[C@@H](CC(=O)O)NC(=O)[C@@H](CC(=O)O)NC(=O)[C@@H](CCCNC(=N)N)NC(=O)[C@@H](CC(C)C)NC(=O)[C@@H](Cc1c[nH]c2ccccc12)NC(=O)[C@@H](CO)NC(=O)CNC(=O)[C@H](N)CO)[C@H](C)O)C(C)C)[C@H](C)O)[C@H](C)O)C(N)=O [NH-D peptide, reference compound]	neither the AH-D peptide nor the NH-D peptide has cytotoxicity		neither the AH-D peptide nor the NH-D peptide has cytotoxicity		
B1					binds

From patent US20230113262A1, “Peptide for cancer immunotherapy rupturing tumor-derived vesicle and use thereof” (RESEARCH & BUSINESS FOUNDATION SUNGKYUNKWAN UNIVERSITY, priority 2021, published 2023)
